Experimental data published in patent US20060293351A1, “Promotion of wound healing” (priority 1999, published 2006).
Read-outs that look alike come from different tables or passages of the source.

How the values were obtained:
urethral strictures = format: in vivo, rats
Text: Tile effect of Halofuginone in post-trauma stricture formation in rats was studied. Briefly, urethral strictures were induced by catheterization and application of an electrical current to the urethra of rats. The rats were divided into four groups: untreated rats as controls (FIG. 5A); rats treated with Halofuginone but not with coagulation current (FIG. 5B); rats treated with coagulation current alone (FIG. 5C); and rats treated with both Halofuginone and coagulation current (FIG. 5D-5F).
The experiments were performed as follows. First, urethral catherization was performed on anesthetized rats with a 23 G Quik-Cath (Baxter, Ireland) sheath. A spinal needle was inserted into the sheath, and was used to apply a coagulation current at a level of 10 W to the outer end of the needle for 1 second at three locations, 8, 10 and 12 mm from the meatus, in order to produce urethral strictures. Halofuginone was given for 7 days starting at the day of stricture formation, either orally at concentrations of 1 ppm and 5 ppm in the diet, or by injection of 0.03% Halofuginone dissolved in 2% lignocaine directly into the urethra once a day. Urethral gross morphology was evaluated by urethrogram after injecting contrast material (Telebrix Megalumine 300 mg/ml. Laboratorie, Guerbet, Aulnay Sous Bios, France) into the anesthetized rat through a 23 G Quik-Cath sheath, under fluoroscopy 3 weeks after stricture formation.

[1] = system: T50 bladder carcinoma bearing mice; experiment: Wound healing in mice implanted with T50 bladder carcinoma tumors; format: in vivo, C3H mice; details: diet containing 10 mg/kg or 5 mg/kg, 3 days prior to and 2 weeks after cell injection
Description: Similar visual results were obtained with mice implanted with T50 bladder carcinoma tumors (FIG. 4). C3H mice were divided into two groups of 6 mice each. The experimental group received a diet containing either 10 mg/kg or 5 mg/kg of Halofuginone 3 days prior to the injection of T50 bladder carcinoma cells and during 2 weeks after. […] The right side received 0.4*10^5 cells, and the left side received 2*10^5 cells. The experiment ended at day 17. FIG. 4 is a photograph of representative bladder carcinoma bearing mice which were untreated (top) or treated (bottom) with Halofuginone. […] Halofuginone was clearly able to promote wound healing in mice implanted with bladder carcinoma tumors.

collagen α1(I) gene = experiment: Collagen α1(I) gene expression at the stricture site (in situ hybridization, image analysis); format: in vivo, rats; details: after coagulation treatment, 3 biopsies for each type of treatment
Description: The experiments were performed as follows. First, urethral catherization was performed on tile rats with a 23 G Quik-Cath (Baxter, Ireland) sheath. A spinal needle was inserted into the sheath, and was used to apply a coagulation current at a level of 10 W to the outer end of the needle for 1 second at three locations, 8, 10 and 12 mm from the meatus, in order to produce urethral strictures. Halofuginone was given for 7 days starting at the day of stricture formation, either orally at concentrations of 1 ppm and 5 ppm in the diet, or by injection of 0.03% Halofuginone dissolved in 2% lignocaine directly into the urethra once a day. After 21 days, the rats were sacrificed and the sutures were reopened to determine the level of urethral stricture formation, at which time biopsies of the tissue were taken. For hybridization with the genetic probe, the sections were deparafinized in xylene, rehydrated through a graded series of ethanol solutions, rinsed in distilled water for 5 minutes and then incubated in 2×SSC at 70° C. for 30 minutes. The sections were then rinsed in distilled water and treated with pronase, 0.125 mg/ml in 50 mM Tris-HCl, 5 mM EDTA, pH 7.5, for 10 minutes. Alter digestion, the slides were rinsed with distilled water, post-fixed in 10% formalin in PBS and blocked in 0.2% glycine. […] Alkaline phosphatase activity was detected in the sections as previously described [Knopov. […]

collagen type III = experiment: Collagen type III immunohistochemistry at the stricture site; format: in vivo, rats; details: diet containing Halofuginone after coagulation current treatment
Description: Immunohistochemistry with antibodies to collagen type III was performed on biopsies taken from control, untreated rats, rats treated with coagulation current alone and rats fed a diet containing Halofuginone after coagulation current treatment. […] The experimental method was as follows. Rats were treated and sections of biopsy tissue were prepared as described previously in Example 4. Immunohistochemistry was performed with primary antibodies against collagen type III (BioGenex. San Ramon, Calif., USA) and a Histomouse SP kit (Zymed Laboratories Inc., South San Francisco, Calif., USA) for the secondary antibodies. The primary antibodies were used in a 1:1000 dilution and detection was performed with the Histomouse SP kit according to the instructions of the manufacturer.

[2] = system: fibroblasts derived from rat urethra; experiment: cells; format: cell-based
Description: Urethral fibroblasts were obtained from three normal male rats, and were processed under sterile conditions. The urethra was cut into 1-2 mm pieces and rinsed several times in a solution containing 0.2 ml/10 ml penicillin/streptomycin and 50 micrograms/ml gentamycin. Each piece of urethra was placed in a 1 ml well of a 24 well plate (Greiner Labortchnik, Germany). Each well was filled with DMEM (Dulbecco's Modified Eagle's Medium), containing […] of D-glucose. 25% FCS (fetal calf serum), 0.1 ml/10 ml penicillin/streptomycin, 0.1 ml/10 ml glutamine. 50 micrograms/ml gentamycin and 2.5 micrograms/ml amphotericin B. The wells were incubated in an incubator containing 5% CO2 at 37° C. Half of the medium was replaced after 10 days. Two to three days later the cultures were trypsinized with trypsin-EDTA medium. The content of each pair of wells was combined, resuspended in DMEM and placed into one 250-ml flask containing 5 ml of medium. When the cell cultures reached confluency, they were transferred to new flasks with a 1:5 ratio of old to new medium. The concentration of FCS was then decreased to 10%.
For the evaluation of the synthesis of CDP and NCDP, cells were incubated for 24 hours with various concentrations of Halofuginone in 0.5 m glutamine-free DMEM containing 5% FCS, ascorbic acid (50 micrograms/ml), β-aminopropionitrile (50 micrograms/ml) and 2 micro-curies of [^3H]proline. At the end of the incubation period, the medium was decanted and incubated with or without collagenase for 18 hours, followed by TCA precipitation. The amount of radiolabeled collagen was estimated as the difference between total [^3H]proline containing proteins and protein remaining after collagenase digestion.

SMILES: O=C(CC1NCCC[C@H]1O)Cn1cnc2cc(Br)c(Cl)cc2c1=O (stereo partly shown) [Halofuginone]
- stricture formation (urethral strictures; 1 ppm in the diet for 7 days with coagulation treatment): did not affect stricture formation
- stricture formation (urethral strictures; 5 ppm in the diet for 7 days with coagulation treatment): did not have strictures
- stricture formation (urethral strictures; locally administered (0.03% in 2% lignocaine into the urethra once a day, 7 days) with coagulation treatment): did not have strictures
- stricture formation (urethral strictures; rat, in vivo): did not have any strictures
- wound healing [1]: greater wound healing
- reduction in the expression of the collagen α1(I) gene (collagen α1(I) gene): 5.3 fold
- levels of collagen type III (collagen type III): No significant changes
- number of cells [2]: did not affect
- appearance of non-collagenase digestible proteins (NCDP) ([2]; 24 hours incubation): did not affect
- inhibition at 0.01 µM ([2]; Rattus norvegicus, Fibroblast, 10^−8 M Halofuginone, 24 hours, read-out: inhibition of the levels of collagenase-digestible proteins (CDP)): 40%
